Drawing on PubChem BioAssay AID1330 (NMMLSC, 2008), this text covers EC50 for 5 compounds.

The target in the experiment is Bcl-2-like protein 2 (Homo sapiens) (UniProt Q92843). Description: Bcl-W/Bim binding regulators – biochemical, multiplexed, bead-based flow cytometry, fluorescence, dose response (AID 1330). Background: A flow cytometer gives signals particle by particle.

The structures appear in SMILES notation. The source made the active and inactive calls. How the calls were made is not given here.

Chain of Bcl-2-like protein 2 (Homo sapiens) (Q92843 whole entry, looked up): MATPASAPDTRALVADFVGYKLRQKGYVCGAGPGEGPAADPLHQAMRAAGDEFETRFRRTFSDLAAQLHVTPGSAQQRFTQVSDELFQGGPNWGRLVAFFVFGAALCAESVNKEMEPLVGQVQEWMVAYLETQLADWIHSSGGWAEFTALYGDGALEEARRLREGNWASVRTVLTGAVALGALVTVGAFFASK

Broadly, the EC50 is the concentration that produces a half-maximal response. With `COc1cccc(/C=N/Nc2nn3cnnc3c3ccccc23)c1`, the EC50 entry was “inactive”.
The result for `O=[N+]([O-])c1ccc(N/N=C/c2ccc(O)c(O)c2O)c(S(=O)(=O)N2CCOCC2)c1` reads 3.52 µM; that for `COc1cccc(/C=N/Nc2nn3cnnc3c3ccccc23)c1O`, “inactive”; that for `O=C(N/N=C/c1ccc(O)c(O)c1O)/C(=C/c1ccc([N+](=O)[O-])cc1)NC(=O)c1ccccc1`, “inactive”.
Regarding `CCC(=O)N(CC)C1=C(O)c2ccccc2C(=O)C1=O`, the EC50 result was “inactive”.
